Data taken from patent US20100248224A1, “DNA FRAGMENTATION ASSAY” (priority 2006, published 2010).

Assays:
Assay type in all cases: cell-based, human
HL-60 cells [1] = experiment: DMSO tolerance in HL-60 cells, PicoGreen fluorescent assay; settings: 20 hr incubation, 0.3 million cells/mL, FIG. 11
Procedure: HL-60 cells in mid-log phase (0.3 million cells/mL) were treated with different doses of DMSO for 20 hours. An equal volume of the lysis buffer (20 mM Tris-HCl (pH 8.0), 20 mM EDTA, 0.2% Tween-20 and 5 ug/ml. RNase) was added into the total cell culture. The cell lysate was centrifuged at 2000×g for 20 min. The top portion of the supernatant was withdrawn and DNA content was quantitated using the PicoGreen fluorescent assay.

HL-60 cells [2] = experiment: ELISA detection of DNA fragmentation in HL-60 cell lysates (Cell Death Detection ELISA kit); settings: HL-60 cells 0.3 million cells/ml, treated 20 hours, FIG. 5, read-out: EC50 value, DNA fragmentation determined by ELISA
HL-60 cells [3] = experiment: PicoGreen detection of DNA fragmentation in HL-60 cell lysates; settings: for EC50: HL-60 cells 0.3 million cells/ml, treated 20 hours, FIG. 3, read-out: EC50 value, DNA fragmentation detected with PicoGreen
Procedure: An equal volume of the lysis buffer (20 mM Tris-HCl (pH 8.0), 20 mM EDTA, 0.2% Tween-20 and 5 ug/mL RNase) was added into the total cell culture. […] The dose response curve of camptothecin using PicoGreen detection (FIG. 3) was compared to propidium iodide detection (FIG. 4).

HL-60 cells [4] = experiment: Inhibition of camptothecin-induced DNA fragmentation in HL-60 cells, PicoGreen detection; settings: 20 hours, FIG. 6
Description: Zinc has been known to inhibit apoptosis induced by both chemical and death-receptor agonists. […] DNA fragments released from cells were quantified with PicoGreen reagent as described above. For samples with camptothecin, without zinc chloride or at low concentrations, fluorescence signal was more than 3 fold of that from samples with DMSO treatment.

## C[S+](C)[O-] [DMSO, dimethyl sulfoxide]
HL-60 cells [1]
  DMSO concentration tolerated by HL-60 cells: up to 1%

## CC[C@@]1(O)C(=O)OCc2c1cc1n(c2=O)Cc2cc3ccccc3nc2-1 [camptothecin, Camptothecin]
HL-60 cells [2]; Homo sapiens
  EC50: 1110 nM
HL-60 cells [3]; 3.2 uM for 5.5 hours vs 0.1% DMSO, 0.4 million cells/mL, FIG. 1
  PicoGreen fluorescence intensity: increased
HL-60 cells [3]; 3.2 uM, at 4 hours of treatment, FIG. 8
  DNA fragmentation, time course: significant increase in DNA fragmentation
HL-60 cells [3]; Homo sapiens
  EC50: 1480 nM
HL-60 cells [4]; 3.2 μM camptothecin, without zinc chloride or at low concentrations
  fluorescence signal relative to samples with DMSO treatment: more than 3 fold

## [Cl-].[Cl-].[Zn+2] [zinc chloride]
HL-60 cells [4]; zinc chloride 100 uM or higher, with 3.2 μM camptothecin
  magnitude of camptothecin-induced DNA fragmentation (level of fluorescent signal): decreased to the same level as samples with DMSO treatment only

## Neomycin
HL-60 cells [2]
  EC50: > 100000 nM
HL-60 cells [3]
  EC50: > 100000 nM
